Experimental data published in patent publication US6534543B2, “Oxa acids and related compounds for treating skin conditions” (Avon Products, Inc., priority 1996, dated 2003).

Test system: stratum corneum desquamation
Test: normalizing effect on stratum corneum desquamation
Excerpt: Oxa acids easily dissolve in water to concentrations of at least 20 to 30% by weight. […] Dicarboxylic acids of moderate to long chain length, which have straight, all-carbon backbones, are virtually insoluble in water and other aesthetically acceptable vehicles. This severely limits the choice of delivery vehicles for the dicarboxylic acids. The desquamatory activity of such dicarboxylic acids is also questionable.

SMILES: O=C(O)CCCCCCCCCCC(=O)O [dodecanedioic acid]
- normalizing effect on stratum corneum desquamation beyond that of vehicle alone (formulation containing 5% dodecanedioic acid): do not produce any normalizing effect
- normalizing effect on stratum corneum desquamation beyond that of vehicle alone (formulation containing 10% dodecanedioic acid): do not produce any normalizing effect
